In ChEMBL document CHEMBL1201862, “PubChem BioAssay data set” (2004):
The source made the active and inactive calls.

Assays:
[1] = system: Streptococcus sp. 'group A'; assay: Streptococcus pyogenes SK(-)GAS viability under kanamycin – luminescence, BacTiterGlo, confirmation, counter-screen for streptokinase expression inhibitor project, dose response (AID 1900); format: functional, organism-based
Streptokinase A = target: T1, Streptokinase A (Streptococcus pyogenes serotype M1, UniProt P10520); assay: viability-normalized secreted streptokinase activity reduction – plasminogen activation absorbance, OD405, dose response (AID 1914); format: functional, Streptococcus pyogenes M1 GAS;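 further: secreted streptokinase activity via plasminogen activation per viability signal from cell pellet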
T1 sequence (P10520 whole entry): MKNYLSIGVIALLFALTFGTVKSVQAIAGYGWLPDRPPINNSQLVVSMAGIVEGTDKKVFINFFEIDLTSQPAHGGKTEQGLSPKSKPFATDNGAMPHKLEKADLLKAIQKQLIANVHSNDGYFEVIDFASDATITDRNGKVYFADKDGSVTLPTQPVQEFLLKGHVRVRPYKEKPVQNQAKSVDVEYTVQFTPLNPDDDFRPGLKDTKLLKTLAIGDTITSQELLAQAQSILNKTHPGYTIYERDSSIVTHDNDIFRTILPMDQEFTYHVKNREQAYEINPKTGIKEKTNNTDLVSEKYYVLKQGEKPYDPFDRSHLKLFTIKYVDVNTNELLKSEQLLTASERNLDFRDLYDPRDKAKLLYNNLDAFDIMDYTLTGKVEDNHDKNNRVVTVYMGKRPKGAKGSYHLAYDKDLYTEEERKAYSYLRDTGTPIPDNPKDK

Streptococcus [2] = assay: Luminescence Microorganism-Based Dose Response Follow up to Identify Compounds Cytotoxic to Streptococcus. [Related pubchem assays: 1677 (Project Summary), 1915, 1914, 1902 (Retest at Dose), 1900 (Counter Screen), 1662 (Primary HTS)]; format: functional, organism-based
Streptococcus [3] = assay: GAS UMAA2166 growth inhibition – luminescence, BacTiterGlo, counter-screen for streptokinase expression inhibitor project, dose response (AID 1915); format: functional, organism-based;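 further: potency for reduction of bacterial viability or growth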
[4] = alpha-synuclein stem-loop luciferase translation blockers – H4 neuroglioma cells, luminescence, confirmation (AID 1988); format: functional, cell-based
BJ [5] = assay: BJ-TERT-LT-ST fibroblast viability loss – cell-based, RAS-independent, luminescence, dose response (AID 1935); format: functional; settings: Homo sapiens;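 further: BJ fibroblasts immortalized with TERT plus LT and ST oncogenes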
[6] = luciferase reporter signal reduction – luminescence, H4-C neuroglioblastoma cells, dose response (AID 2458); format: functional, cell-based;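 further: H4 neuroglioblastoma cells stably carrying a luciferase reporter gene fusion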
BJ [7] = assay: cells; format: functional, cell-based; settings: Homo sapiens
BJ [8] = assay: BJ-TERT fibroblast viability loss – cell-based, RAS-independent, luminescence, dose response (AID 1933); format: functional; settings: Homo sapiens
[9] = DRD fibroblast viability loss – cell-based, non-viral oncogenic, luminescence, dose response (AID 1934); format: functional; settings: Homo sapiens
[10] = Luminescence Cell-Based Dose Response HTS to Identify Inhibitors of 5'UTR Stem-Loop Driven Prion Protein mRNA Translation in H4 Neuroglioblastoma Cells. [Related pubchem assays: 1827 (Project Summary), 1813 (Primary HTS)]; format: functional
[11] = alpha-synuclein stem-loop translation blockers – luminescence, H4 neuroglioblastoma cells, dose confirmation, confirmation (AID 2454); format: functional, cell-based;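 further: H4 neuroglioblastoma cells carrying an alpha-synuclein 5'UTR luciferase reporter; potency for inhibition of the luciferase signal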
cells = format: functional, cell-based
Paired box protein Pax-8 = Paired box protein Pax-8 (Homo sapiens, UniProt Q06710); assay: PAX8 transcriptional activity inhibition in RMG-I – RMG-I cells, luciferase, cherry-pick, dose response (AID 687027); format: functional, cell-based;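 further: luciferase reporter driven by Pax8 target thyroperoxidase promoter measured by SteadyGlo luminescence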
Paired box protein Pax-8, sequence (Q06710 whole entry): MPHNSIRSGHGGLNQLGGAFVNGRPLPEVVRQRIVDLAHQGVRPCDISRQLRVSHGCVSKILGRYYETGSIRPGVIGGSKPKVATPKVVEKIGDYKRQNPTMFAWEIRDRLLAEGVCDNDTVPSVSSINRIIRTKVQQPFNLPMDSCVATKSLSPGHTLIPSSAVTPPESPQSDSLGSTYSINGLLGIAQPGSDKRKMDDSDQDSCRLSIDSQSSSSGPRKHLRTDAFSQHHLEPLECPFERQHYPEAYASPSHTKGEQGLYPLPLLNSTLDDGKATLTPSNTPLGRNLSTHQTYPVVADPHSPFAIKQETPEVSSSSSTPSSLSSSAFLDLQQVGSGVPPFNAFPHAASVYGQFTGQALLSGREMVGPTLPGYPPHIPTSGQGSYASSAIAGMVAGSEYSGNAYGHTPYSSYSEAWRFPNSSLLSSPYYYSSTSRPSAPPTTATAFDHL

[12] = luciferase reporter signal suppression in cells – H4 neuroglioma cells, luminescence, dose response (AID 1990); format: functional, cell-based
[13] = HEK-293T viability loss after treatment – luminescence, T-cell screen hits, cytotoxicity control for TCR NF-kB inhibitor project, dose response (AID 489026); format: functional, cell-based;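 further: cells exposed to compound about 14 hours before the viability readout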
[14] = mitochondrial function rescue without frataxin homolog – Friedreich's ataxia, plus single-dose screen, dose response (AID 1465); format: functional;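 further: yeast depleted of Yfh1p frataxin homolog grown on glycerol needing respiration; WST-1 tetrazolium dye reduction as measure of cellular dehydrogenase metabolic activity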
Protein Rev = Protein Rev (Human immunodeficiency virus type 1 group M subtype B (isolate WMJ22)(HIV-1), UniProt P05866); assay: inhibitors of Rev protein–RRE RNA complex – biochemical, protein-RNA interaction, dose response (AID 842); design: species or system Human immunodeficiency virus 1
Protein Rev, sequence (P05866 whole entry): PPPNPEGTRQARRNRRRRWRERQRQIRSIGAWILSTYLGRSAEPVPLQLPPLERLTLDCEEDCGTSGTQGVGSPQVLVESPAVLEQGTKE

[15] = viability loss in Vero cells – cytotoxicity control for Vif-APOBEC3G degradation inhibitor project, dose response (AID 1117358); format: functional; settings: Vero
[16] = target: Sphingosine 1-phosphate receptor 2 (Homo sapiens, UniProt O95136); assay: Dose Response Cell Based Assay for Agonists of the S1P2 Receptor of Purchased Analogues. [Related pubchem assays: 729, 843, 854, 736 ]; format: functional
Sphingosine 1-phosphate receptor 2, sequence (O95136 whole entry): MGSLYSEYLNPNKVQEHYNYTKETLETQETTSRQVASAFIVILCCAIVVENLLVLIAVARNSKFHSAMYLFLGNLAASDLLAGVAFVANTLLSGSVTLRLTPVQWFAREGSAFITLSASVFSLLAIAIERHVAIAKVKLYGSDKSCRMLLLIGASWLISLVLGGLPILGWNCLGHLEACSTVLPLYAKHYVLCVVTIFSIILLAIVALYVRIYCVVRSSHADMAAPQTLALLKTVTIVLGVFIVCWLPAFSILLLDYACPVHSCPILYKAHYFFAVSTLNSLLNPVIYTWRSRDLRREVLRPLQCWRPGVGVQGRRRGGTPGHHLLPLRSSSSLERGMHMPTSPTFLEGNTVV

Insulin-degrading enzyme = target: T2, Insulin-degrading enzyme (Homo sapiens, UniProt P14735); assay: Dose Response: Fluorescence polarization-based cell-based high throughput dose response assay for inhibitors of insulin-degrading enzyme (IDE). [Related pubchem assays: 434962 (Primary screen (IDE inhibitors in singlicate)), 449730 (Counterscreen (Cytotoxicity in triplicate)), 435028 (Confirmation (IDE inhibitors in triplicate)), 434984 (Summary …; format: functional
T2 sequence (P14735 whole entry): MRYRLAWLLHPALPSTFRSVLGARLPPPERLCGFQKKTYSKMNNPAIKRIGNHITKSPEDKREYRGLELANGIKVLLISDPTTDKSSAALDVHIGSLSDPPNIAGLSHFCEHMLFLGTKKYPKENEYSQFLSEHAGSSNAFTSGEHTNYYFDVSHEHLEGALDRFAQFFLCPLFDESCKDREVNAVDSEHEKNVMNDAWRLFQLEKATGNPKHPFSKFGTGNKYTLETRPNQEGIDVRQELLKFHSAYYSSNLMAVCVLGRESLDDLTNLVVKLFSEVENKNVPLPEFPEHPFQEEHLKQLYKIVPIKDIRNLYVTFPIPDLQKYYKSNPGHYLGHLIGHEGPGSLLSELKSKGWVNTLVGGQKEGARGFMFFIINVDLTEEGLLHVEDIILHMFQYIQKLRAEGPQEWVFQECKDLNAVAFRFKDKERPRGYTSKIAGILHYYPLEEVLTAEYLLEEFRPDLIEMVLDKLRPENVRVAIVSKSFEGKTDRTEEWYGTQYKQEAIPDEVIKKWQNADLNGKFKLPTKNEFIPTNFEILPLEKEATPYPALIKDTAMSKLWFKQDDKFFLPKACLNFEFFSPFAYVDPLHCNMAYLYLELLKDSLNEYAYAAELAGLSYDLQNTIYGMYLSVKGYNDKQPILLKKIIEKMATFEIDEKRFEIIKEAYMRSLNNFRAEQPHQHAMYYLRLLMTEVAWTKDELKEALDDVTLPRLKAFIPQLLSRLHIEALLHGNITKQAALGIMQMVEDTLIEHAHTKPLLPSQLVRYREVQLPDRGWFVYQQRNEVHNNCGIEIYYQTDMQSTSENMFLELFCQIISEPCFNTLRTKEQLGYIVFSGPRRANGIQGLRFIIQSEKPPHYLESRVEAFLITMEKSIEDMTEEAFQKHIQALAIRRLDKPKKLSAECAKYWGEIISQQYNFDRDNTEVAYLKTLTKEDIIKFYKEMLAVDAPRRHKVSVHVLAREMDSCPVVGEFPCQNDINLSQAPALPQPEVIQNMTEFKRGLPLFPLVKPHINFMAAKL

[17] = Counterscreen for IDE inhibitors: Luminescence-based cell-based high throughput dose response assay to identify compounds that are cytotoxic to HEK cells. [Related pubchem assays: 434962 (Primary screen (IDE inhibitors in singlicate)), 449730 (Counterscreen (Cytotoxicity in triplicate)), 435028 (Confirmation (IDE inhibitors in triplicate)) …; format: functional; settings: HEK293
Large T antigen = Large T antigen (Simian virus 40, UniProt P03070); format: functional, Betapolyomavirus macacae;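 further: Confirmatory-stage PubChem screen for compounds that inhibit SV40 T antigen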
Large T antigen, sequence (P03070 whole entry): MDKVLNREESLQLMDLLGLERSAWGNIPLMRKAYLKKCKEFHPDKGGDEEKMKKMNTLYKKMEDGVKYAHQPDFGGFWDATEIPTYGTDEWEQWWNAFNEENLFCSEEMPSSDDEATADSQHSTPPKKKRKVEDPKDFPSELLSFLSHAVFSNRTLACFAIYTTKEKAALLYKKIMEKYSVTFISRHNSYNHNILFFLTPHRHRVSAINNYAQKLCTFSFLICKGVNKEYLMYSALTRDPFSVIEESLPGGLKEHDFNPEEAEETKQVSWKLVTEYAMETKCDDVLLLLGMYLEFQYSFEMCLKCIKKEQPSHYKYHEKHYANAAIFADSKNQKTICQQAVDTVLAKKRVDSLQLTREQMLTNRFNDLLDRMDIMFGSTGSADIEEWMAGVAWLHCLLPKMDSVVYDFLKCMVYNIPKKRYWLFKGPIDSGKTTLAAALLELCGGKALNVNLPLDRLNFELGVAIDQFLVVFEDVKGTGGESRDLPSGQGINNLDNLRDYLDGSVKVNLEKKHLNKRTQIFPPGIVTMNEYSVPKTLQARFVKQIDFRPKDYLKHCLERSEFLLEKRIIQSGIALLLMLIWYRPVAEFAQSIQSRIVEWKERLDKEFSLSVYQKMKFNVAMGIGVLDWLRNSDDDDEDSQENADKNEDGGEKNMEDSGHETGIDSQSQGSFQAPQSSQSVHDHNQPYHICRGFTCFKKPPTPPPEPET

Procathepsin L = Procathepsin L (Homo sapiens, UniProt P07711)
Procathepsin L, sequence (P07711 whole entry): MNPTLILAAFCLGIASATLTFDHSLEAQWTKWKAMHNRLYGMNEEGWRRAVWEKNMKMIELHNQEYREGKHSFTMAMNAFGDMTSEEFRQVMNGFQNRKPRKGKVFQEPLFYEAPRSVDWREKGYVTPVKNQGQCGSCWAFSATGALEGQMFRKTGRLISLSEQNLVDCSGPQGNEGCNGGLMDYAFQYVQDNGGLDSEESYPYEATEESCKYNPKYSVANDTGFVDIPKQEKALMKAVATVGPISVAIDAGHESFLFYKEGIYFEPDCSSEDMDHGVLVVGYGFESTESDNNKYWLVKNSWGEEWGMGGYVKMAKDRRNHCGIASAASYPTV

Aspartyl aminopeptidase = Aspartyl aminopeptidase (Plasmodium falciparum 3D7, UniProt Q8I2J3)
Aspartyl aminopeptidase, sequence (Q8I2J3 whole entry): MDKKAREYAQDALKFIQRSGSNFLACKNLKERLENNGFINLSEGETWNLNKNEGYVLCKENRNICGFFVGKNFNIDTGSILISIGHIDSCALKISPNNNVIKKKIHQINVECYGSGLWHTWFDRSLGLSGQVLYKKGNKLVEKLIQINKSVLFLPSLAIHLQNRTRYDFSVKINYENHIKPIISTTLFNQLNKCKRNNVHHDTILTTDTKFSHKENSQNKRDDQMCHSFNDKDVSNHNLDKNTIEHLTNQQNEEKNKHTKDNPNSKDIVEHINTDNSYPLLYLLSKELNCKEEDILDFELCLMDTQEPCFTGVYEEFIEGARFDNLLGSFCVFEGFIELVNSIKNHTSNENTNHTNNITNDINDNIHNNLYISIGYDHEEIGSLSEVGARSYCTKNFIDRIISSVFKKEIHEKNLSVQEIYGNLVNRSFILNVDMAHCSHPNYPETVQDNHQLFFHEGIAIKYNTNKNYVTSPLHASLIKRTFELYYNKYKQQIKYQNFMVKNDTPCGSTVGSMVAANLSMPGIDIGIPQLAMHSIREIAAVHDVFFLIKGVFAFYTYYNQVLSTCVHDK

Bcl-2-like protein 10 = target: T3, Bcl-2-like protein 10 (Homo sapiens, UniProt Q9HD36); assay: Bcl-B/TR3 peptide binding disruption – biochemical, fluorescence polarization, FITC-TR3 peptide, selectivity assay for Bfl-1 inhibitor project, primary screen (AID 748);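 further: fluorescence polarization from a fluorescein-labelled TR3 peptide binding purified Bcl-B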
T3 sequence (Q9HD36 whole entry): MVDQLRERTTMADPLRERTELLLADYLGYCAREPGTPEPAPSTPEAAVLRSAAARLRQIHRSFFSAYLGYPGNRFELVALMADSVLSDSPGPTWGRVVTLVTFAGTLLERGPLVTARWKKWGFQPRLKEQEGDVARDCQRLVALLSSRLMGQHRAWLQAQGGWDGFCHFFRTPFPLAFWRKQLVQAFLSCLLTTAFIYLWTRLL

Estrogen receptor beta [18] = target: T4, Estrogen receptor beta (Homo sapiens, UniProt Q92731);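 further: recombinant ER-beta bound to coactivator SRC1 peptide in presence of estradiol agonist; inhibitors block coactivator peptide binding and lower the FRET signal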
T4 sequence (Q92731 whole entry): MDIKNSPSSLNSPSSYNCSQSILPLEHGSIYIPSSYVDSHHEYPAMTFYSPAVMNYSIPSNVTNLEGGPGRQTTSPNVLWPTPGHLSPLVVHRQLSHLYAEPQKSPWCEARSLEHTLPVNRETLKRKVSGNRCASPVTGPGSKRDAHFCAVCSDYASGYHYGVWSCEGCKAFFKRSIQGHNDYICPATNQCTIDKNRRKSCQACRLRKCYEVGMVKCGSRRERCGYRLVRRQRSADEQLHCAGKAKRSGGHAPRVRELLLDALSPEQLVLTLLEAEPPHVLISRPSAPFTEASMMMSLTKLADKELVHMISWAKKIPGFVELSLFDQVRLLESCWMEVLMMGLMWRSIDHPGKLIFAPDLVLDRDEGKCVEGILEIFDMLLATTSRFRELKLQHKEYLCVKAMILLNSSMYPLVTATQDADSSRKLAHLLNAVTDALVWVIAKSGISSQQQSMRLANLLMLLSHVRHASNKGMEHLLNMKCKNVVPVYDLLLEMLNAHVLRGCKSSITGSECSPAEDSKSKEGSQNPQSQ

Leucine aminopeptidase = target: T5, Leucine aminopeptidase (Plasmodium falciparum 3D7, UniProt Q8IL11); assay: P. falciparum M17LAP inhibitors, primary screen, biochemical, fluorogenic H-Leu-NHMec substrate, 1536-well (AID 1619); format: functional
T5 sequence (Q8IL11 whole entry): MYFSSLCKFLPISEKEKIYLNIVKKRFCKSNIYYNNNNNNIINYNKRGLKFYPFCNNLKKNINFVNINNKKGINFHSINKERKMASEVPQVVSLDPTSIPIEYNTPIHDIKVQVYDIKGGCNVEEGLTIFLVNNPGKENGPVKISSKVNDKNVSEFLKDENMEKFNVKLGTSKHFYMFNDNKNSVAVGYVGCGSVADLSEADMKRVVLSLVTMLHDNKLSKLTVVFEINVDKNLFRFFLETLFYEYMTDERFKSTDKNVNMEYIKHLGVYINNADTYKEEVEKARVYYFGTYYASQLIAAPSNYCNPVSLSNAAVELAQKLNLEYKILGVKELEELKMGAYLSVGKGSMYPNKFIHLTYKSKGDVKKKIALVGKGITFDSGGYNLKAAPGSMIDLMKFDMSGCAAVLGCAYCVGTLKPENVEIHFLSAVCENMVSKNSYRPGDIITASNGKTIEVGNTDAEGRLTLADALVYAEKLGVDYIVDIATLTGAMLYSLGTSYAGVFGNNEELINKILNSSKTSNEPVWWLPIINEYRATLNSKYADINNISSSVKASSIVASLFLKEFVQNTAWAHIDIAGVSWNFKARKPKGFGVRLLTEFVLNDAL

Estrogen receptor beta [19] = target: T4, Estrogen receptor beta; assay: blockers of SRC-3 recruitment to ERβ – biochemical, ELISA, streptavidin-HRP readout, orthogonal assay, confirmation (AID 1060)

For `Cn1c(=O)c2c(nc(SCc3ccccc3)n2Cc2ccc(Cl)cc2)n(C)c1=O`, the EC50 [1] was 7.96 µM (active), the EC50 (Streptokinase A) was 10.7 µM (active) and the EC50 (Streptococcus [2]) was > 500 µM (not active). The EC50 (Streptococcus [3]) was > 150 µM (not active).
For `COc1cc2c(c(OC)c1OC)-c1ccc(O)cc1[C@@H](NC(C)=O)CC2` [N-ACETYLCOLCHINOL], the EC50 [4] was < 100 nM (active), the EC50 (BJ [5]) was 146 nM (inconclusive) and the EC50 [6] was 88 nM (active). The EC50 (BJ [7]) was 345 nM (inconclusive), the EC50 (BJ [8]) was 193 nM (active) and the EC50 [9] was 201 nM (active). For the same compound, the EC50 [10] was < 100 nM (active), the EC50 [11] was 72 nM (active) and the EC50 (cells) was 100 nM (active). For the same compound, the AC50 (Paired box protein Pax-8) was 370 nM (active), the EC50 [12] was < 100 nM (active) and the IC50 [13] was > 80 µM (inactive).
For `CCOC(=O)/C(=C\C=C1/Sc2ccccc2N1CC)C(C)=O`, the EC50 [14] was > 100 µM (active).
In the case of `CCN(CC)CCNC1=NCCn2c1cc1cc(OC)ccc12`, the IC50 (Protein Rev) is reported as > 79.4 µM (not active) and the CC50 [15] is reported as > 40 µM (active).
With `Cc1cc(C(=O)CN(C)CC(=O)N2CCCC2)c(C)n1Cc1ccccc1` the EC50 [16] was > 30 µM (not active).
For `CCOc1ccc(N2C(=O)S/C(=C\c3ccc(O)c(OC)c3)C2=O)cc1`, the IC50 (Insulin-degrading enzyme) was 29.8 µM (not active) and the IC50 [17] was > 55.7 µM (not active).
With `O=C(CSc1nc(O)c2ccccc2n1)c1ccc(O)c(O)c1` the IC50 (Large T antigen) was 10.7 µM (active), the IC50 (Procathepsin L) was > 59.6 µM (not active) and the IC50 (Aspartyl aminopeptidase) was 1.46 µM (active). The IC50 (Bcl-2-like protein 10) was 23.4 µM (active), the IC50 (Estrogen receptor beta [18]) was 4.62 µM (active) and the IC50 (Leucine aminopeptidase) was 13 µM (active). The IC50 (Estrogen receptor beta [19]) was 337 nM (not active).
